Results from patent US10570179B2, “Substituted urea depsipeptide analogs as activators of the CLPP endopeptidase” (priority 2016, dated 2020).
≈ marks a conversion by molar mass, not a printed value. Where two headings read alike, the source gives them in different places. Numbered stars: 1 amine (or outer) side, 2 acyl side, 3 side chain; on linkers, the order of the positions; unused ones are H or OH. Bridge positions count the residues as written; N and C are the ends. Square brackets hold non-standard residues; d marks the D form. Peptide text beside a SMILES is read from it. * marks the point of attachment. Phe(3-CF3) = N[C@@H](Cc1cccc(C(F)(F)F)c1)C(=O)O; Piperazine(2S-CO,4-Me) = CN1CCN[C@H](C(=O)O)C1; NH(1,3-benzodioxol-5-yl) = c1cc2c(cc1N*)OCO2; Phe(3-OMe) = COc1cccc(C[C@H](N)C(=O)O)c1; Morpholine(3S-CO) = O=C(O)[C@@H]1COCCN1; Phe(3-Me) = Cc1cccc(C[C@H](N)C(=O)O)c1; NH(4-Cl-2-F-phenyl) = Fc1cc(Cl)ccc1N*; Pro(4R-Me) = C[C@H]1CN[C@H](C(=O)O)C1; X1 = O=C([C@@H]1CSCCN1[*:1])[*:2]; Hyp = O=C(O)[C@@H]1C[C@@H](O)CN1; NH(4-Et-phenyl) = CCc1ccc(N*)cc1; NH(4-Me-phenyl) = Cc1ccc(N*)cc1; aThr = C[C@H](O)[C@H](N)C(=O)O; CO = O=C([*:1])[*:2]; X2 = Fc1cc(N*)ccc1Cl

What was measured:
[1] = Plasma pharmacokinetics; format: in vivo, male BALB/c mice; settings: for Vd: read-out: Vss
[2] = test system: S. pneumoniae; assay: Minimal inhibitory concentration, microbroth dilution; format: cell-based; settings: Streptococcus pneumoniae, read-out: Minimal Inhibitory Concentrations (μM) S. pneumoniae
Procedure, shortened: (§1)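 Following CLSI M7-A7 microbroth dilution, twofold serial dilutions of compound (top final concentration 200 μM) were combined with an equal volume of broth inoculum at about 10^5 cfu/mL. Plates were incubated aerobically at 37 °C overnight, and the MIC was the lowest concentration preventing visible growth.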

[3] = test system: S. pyogenes; assay: as above; format: cell-based; settings: Streptococcus pyogenes, read-out: Minimal Inhibitory Concentrations (μM) S. pyogenes
Procedure, shortened: as §1

[4] = male, BALB/c, mouse, in vivo, iv
[5] = male, BALB/c, mouse, in vivo, iv, 10 mg/kg, Route i.v.

Structure (SMILES)	AUC(0-inf) [1, 4]	AUC(0-t) [1, 4]	C^0 [1, 4]	clearance [1, 4]	half-life [1, 4]	Vd [1, 5]	MIC ([2]; MIC)	MIC ([3]; MIC)	other results
Cc1cccc(C[C@H](NC(=O)Nc2ccc(Cl)cc2F)C(=O)N[C@@H]2C(=O)N3C[C@H](O)C[C@H]3C(=O)N3CCN(C)C[C@H]3C(=O)N[C@@H](C)C(=O)N3C[C@H](C)C[C@H]3C(=O)O[C@H]2C)c1 [Compound 31, (S)-2-(3-(4-CHLORO-2-FLUOROPHENYL)UREIDO)-N-((6AS,8R,12S,13S,15AS,17R,21S,23AS)-8-HYDROXY-2,13,17,21-TETRAMETHYL-6,11,15,20,23-PENTAOXOOCTADECAHYDRO-2H,6H,11H,15H-PYRAZINO[2,1-I]DIPYRROLO[2,1-C:2′,1′-L][1]OXA[4,7,10,13]TETRAAZACYCLOHEXADECIN-12-YL)-3-(M-TOLYL)PROPANAMIDE] ({NH(4-Cl-2-F-phenyl)-CO}-[Phe(3-Me)][aThr][Hyp][Piperazine(2S-CO,4-Me)]A[Pro(4R-Me)]; ester 2-C)	5.26 µg·h/mL	5.25 µg·h/mL	30582.19 ng/mL	1.9 L/h/kg	1.55 h	0.63 L/kg	–	–	–
Cc1cccc(C[C@H](NC(=O)Nc2ccc(Cl)c(F)c2)C(=O)N[C@H]2COC(=O)[C@@H]3C[C@@H](C)CN3C(=O)[C@H](C)NC(=O)[C@@H]3CN(C)CCN3C(=O)[C@@H]3CCCN3C2=O)c1 [Compound 14, (S)-2-(3-(4-CHLORO-3-FLUOROPHENYL)UREIDO)-3-(M-TOLYL)-N-((6AS,12S,15AS,17R,21S,23AS)-2,17,21-TRIMETHYL-6,11,15,20,23-PENTAOXOOCTADECAHYDRO-2H,6H,11H,15H-PYRAZINO[2,1-I]DIPYRROLO[2,1-C:2′,1′-L][1]OXA[4,7,10,13]TETRAAZACYCLOHEXADECIN-12-YL)PROPANAMIDE] ({X2-CO}-[Phe(3-Me)]SP[Piperazine(2S-CO,4-Me)]A[Pro(4R-Me)]; ester 2-C)	–	–	–	–	–	–	0.625 µM (≈ 0.516 µg/mL)	1.25 µM (≈ 1.03 µg/mL)	–
Cc1cccc(C[C@H](NC(=O)Nc2ccc3c(c2)OCO3)C(=O)N[C@H]2COC(=O)[C@@H]3C[C@@H](C)CN3C(=O)[C@H](C)NC(=O)[C@@H]3CCCCN3C(=O)[C@@H]3CCCN3C2=O)c1 [Compound 23, (S)-2-(3-(BENZO[D][1,3]DIOXOL-5-YL)UREIDO)-N-((2R,6S,8AS,14AS,20S,23AS)-2,6-DIMETHYL-5,8,14,19,23-PENTAOXOOCTADECAHYDRO-1H,5H,14H,19H-PYRIDO[2,1-I]DIPYRROLO[2,1-C:2′,1′-L][1]OXA[4,7,10,13]TETRAAZACYCLOHEXADECIN-20-YL)-3-(M-TOLYL)PROPANAMIDE]	12 µg·h/mL	11.7 µg·h/mL	25009.24 ng/mL	0.83 L/h/kg	4.57 h	2.83 L/kg	–	–	–
Cc1ccc(NC(=O)N[C@@H](Cc2cccc(C)c2)C(=O)N[C@H]2COC(=O)[C@@H]3C[C@@H](C)CN3C(=O)[C@H](C)NC(=O)[C@@H]3CN(C)CCN3C(=O)[C@@H]3CCCN3C2=O)cc1 [Compound 15, (S)-3-(M-TOLYL)-2-(3-(P-TOLYL)UREIDO)-N-((6AS,12S,15AS,17R,21S,23AS)-2,17,21-TRIMETHYL-6,11,15,20,23-PENTAOXOOCTADECAHYDRO-2H,6H,11H,15H-PYRAZINO[2,1-I]DIPYRROLO[2,1-C:2′,1′-L][1]OXA[4,7,10,13]TETRAAZACYCLOHEXADECIN-12-YL)PROPANAMIDE] ({NH(4-Me-phenyl)-CO}-[Phe(3-Me)]SP[Piperazine(2S-CO,4-Me)]A[Pro(4R-Me)]; ester 2-C)	–	–	–	–	–	–	–	–	MIC [2]: 0.313 µM (≈ 0.246 µg/mL); MIC [3]: 0.313 µM (≈ 0.246 µg/mL)
C[C@@H]1C[C@H]2C(=O)OC[C@H](NC(=O)[C@H](Cc3cccc(C(F)(F)F)c3)NC(=O)Nc3ccc(Cl)cc3F)C(=O)N3CCC[C@H]3C(=O)N3CCN(C)C[C@H]3C(=O)N[C@@H](C)C(=O)N2C1 [Compound 18, (S)-2-(3-(4-CHLORO-2-FLUOROPHENYL)UREIDO)-3-(3-(TRIFLUOROMETHYL)PHENYL)-N-((6AS,12S,15AS,17R,21S,23AS)-2,17,21-TRIMETHYL-6,11,15,20,23-PENTAOXOOCTADECAHYDRO-2H,6H,11H,15H-PYRAZINO[2,1-I]DIPYRROLO[2,1-C:2′,1′-L][1]OXA[4,7,10,13]TETRAAZACYCLOHEXADECIN-12-YL)PROPANAMIDE] ({NH(4-Cl-2-F-phenyl)-CO}-[Phe(3-CF3)]SP[Piperazine(2S-CO,4-Me)]A[Pro(4R-Me)]; ester 2-C)	–	–	–	–	–	–	< 0.02 µM	0.625 µM (≈ 0.55 µg/mL)	–
COc1cccc(C[C@H](NC(=O)Nc2ccc(Cl)cc2F)C(=O)N[C@H]2COC(=O)[C@@H]3C[C@@H](C)CN3C(=O)[C@H](C)NC(=O)[C@@H]3CN(C)CCN3C(=O)[C@@H]3CCCN3C2=O)c1 [Compound 19, (S)-2-(3-(4-CHLORO-2-FLUOROPHENYL)UREIDO)-3-(3-METHOXYPHENYL)-N-((6AS,12S,15AS,17R,21S,23AS)-2,17,21-TRIMETHYL-6,11,15,20,23-PENTAOXOOCTADECAHYDRO-2H,6H,11H,15H-PYRAZINO[2,1-I]DIPYRROLO[2,1-C:2′,1′-L][1]OXA[4,7,10,13]TETRAAZACYCLOHEXADECIN-12-YL)PROPANAMIDE] ({NH(4-Cl-2-F-phenyl)-CO}-[Phe(3-OMe)]SP[Piperazine(2S-CO,4-Me)]A[Pro(4R-Me)]; ester 2-C)	–	–	–	–	–	–	2.5 µM (≈ 2.1 µg/mL)	10 µM (≈ 8.41 µg/mL)	–
Cc1cccc(C[C@H](NC(=O)Nc2ccc(Cl)cc2F)C(=O)N[C@H]2COC(=O)[C@@H]3C[C@@H](C)CN3C(=O)[C@H](C)NC(=O)[C@@H]3CN(C)CCN3C(=O)[C@@H]3CCCN3C2=O)c1 [Compound 13, (S)-2-(3-(4-CHLORO-2-FLUOROPHENYL)UREIDO)-3-(M-TOLYL)-N-((6AS,12S,15AS,17R,21S,23AS)-2,17,21-TRIMETHYL-6,11,15,20,23-PENTAOXOOCTADECAHYDRO-2H,6H,11H,15H-PYRAZINO[2,1-I]DIPYRROLO[2,1-C:2′,1′-L][1]OXA[4,7,10,13]TETRAAZACYCLOHEXADECIN-12-YL)PROPANAMIDE] ({NH(4-Cl-2-F-phenyl)-CO}-[Phe(3-Me)]SP[Piperazine(2S-CO,4-Me)]A[Pro(4R-Me)]; ester 2-C)	–	–	–	–	–	–	0.156 µM (≈ 0.129 µg/mL)	0.313 µM (≈ 0.258 µg/mL)	–
Cc1ccc(NC(=O)N[C@@H](Cc2cccc(C)c2)C(=O)N[C@@H]2C(=O)N3C[C@H](O)C[C@H]3C(=O)N3CCN(C)C[C@H]3C(=O)N[C@@H](C)C(=O)N3C[C@H](C)C[C@H]3C(=O)O[C@H]2C)cc1 [Compound 30, (S)—N-((6AS,8R,12S,13S,15AS,17R,21S,23AS)-8-HYDROXY-2,13,17,21-TETRAMETHYL-6,11,15,20,23-PENTAOXOOCTADECAHYDRO-2H,6H,11H,15H-PYRAZINO[2,1-I]DIPYRROLO[2,1-C:2′,1′-L][1]OXA[4,7,10,13]TETRAAZACYCLOHEXADECIN-12-YL)-3-(M-TOLYL)-2-(3-(P-TOLYL)UREIDO)PROPANAMIDE] ({NH(4-Me-phenyl)-CO}-[Phe(3-Me)][aThr][Hyp][Piperazine(2S-CO,4-Me)]A[Pro(4R-Me)]; ester 2-C)	–	–	–	–	–	1.74 L/kg	–	–	C^0 ([1]; Route i.v.): 12355.62 ng/mL; AUC(0-inf) ([1]; male, BALB/c, mouse, in vivo, iv, 10 mg/kg, Route i.v., read-out: AUCinf): 2.65 µg·h/mL; AUC(0-t) ([1]; male, BALB/c, mouse, in vivo, iv, 10 mg/kg, Route i.v., read-out: AUClast): 2.62 µg·h/mL; clearance ([1]; male, BALB/c, mouse, in vivo, iv, 10 mg/kg, Route i.v., read-out: CL): 3.78 L/h/kg; half-life ([1]; male, BALB/c, mouse, in vivo, iv, 10 mg/kg, Route i.v., read-out: T1/2 (converted)): 2.08 h
Cc1cccc(C[C@H](NC(=O)Nc2ccc(Cl)cc2F)C(=O)N[C@@H]2C(=O)N3CCC[C@H]3C(=O)N3CCSC[C@H]3C(=O)N[C@@H](C)C(=O)N3C[C@H](C)C[C@H]3C(=O)O[C@H]2C)c1 [Compound 38, (S)-2-(3-(4-CHLORO-2-FLUOROPHENYL)UREIDO)-3-(M-TOLYL)-N-((6AS,12S,13S,15AS,17R,21S,23AR)-13,17,21-TRIMETHYL-6,11,15,20,23-PENTAOXOOCTADECAHYDRO-6H,11H,15H-DIPYRROLO[2,1-C:2′,1′-L][1,4]THIAZINO[3,4-I][1]OXA[4,7,10,13]TETRAAZACYCLOHEXADECIN-12-YL)PROPANAMIDE] ({NH(4-Cl-2-F-phenyl)-CO}-[Phe(3-Me)][aThr]P[X1]A[Pro(4R-Me)]; ester 2-C)	13.3 µg·h/mL	13.2 µg·h/mL	16999.46 ng/mL	0.753 L/h/kg	3.11 h	1.77 L/kg	–	–	–
Cc1cccc(C[C@H](NC(=O)Nc2ccc3c(c2)OCO3)C(=O)N[C@H]2COC(=O)[C@@H]3C[C@@H](C)CN3C(=O)[C@H](C)NC(=O)[C@@H]3CN(C)CCN3C(=O)[C@@H]3CCCN3C2=O)c1 [Compound 17, (S)-2-(3-(BENZO[D][1,3]DIOXOL-5-YL)UREIDO)-3-(M-TOLYL)-N-((6AS,12S,15AS,17R,21S,23AS)-2,17,21-TRIMETHYL-6,11,15,20,23-PENTAOXOOCTADECAHYDRO-2H,6H,11H,15H-PYRAZINO[2,1-I]DIPYRROLO[2,1-C:2′,1′-L][1]OXA[4,7,10,13]TETRAAZACYCLOHEXADECIN-12-YL)PROPANAMIDE] ({NH(1,3-benzodioxol-5-yl)-CO}-[Phe(3-Me)]SP[Piperazine(2S-CO,4-Me)]A[Pro(4R-Me)]; ester 2-C)	–	–	–	–	–	–	0.313 µM (≈ 0.256 µg/mL)	1.25 µM (≈ 1.02 µg/mL)	–
CCc1ccc(NC(=O)N[C@@H](Cc2cccc(C)c2)C(=O)N[C@@H]2C(=O)N3C[C@H](O)C[C@H]3C(=O)N3CCOC[C@H]3C(=O)N[C@@H](C)C(=O)N3C[C@H](C)C[C@H]3C(=O)O[C@H]2C)cc1 [Compound 24, (S)-2-(3-(4-ETHYLPHENYL)UREIDO)-N-((6AS,8R,12S,13S,15AS,17R,21S,23AS)-8-HYDROXY-13,17,21-TRIMETHYL-6,11,15,20,23-PENTAOXOOCTADECAHYDRO-6H,11H,15H-[1,4]OXAZINO[3,4-I]DIPYRROLO[2,1-C:2′,1′-L][1]OXA[4,7,10,13]TETRAAZACYCLOHEXADECIN-12-YL)-3-(M-TOLYL)PROPANAMIDE] ({NH(4-Et-phenyl)-CO}-[Phe(3-Me)][aThr][Hyp][Morpholine(3S-CO)]A[Pro(4R-Me)]; ester 2-C)	3.87 µg·h/mL	3.85 µg·h/mL	27083.47 ng/mL	2.58 L/h/kg	0.34 h	0.51 L/kg	–	–	–
